Results from patent US12295936B2, “Immunomodulating urea azalides” (Zoetis Services LLC, priority 2020, dated 2025).

What was measured:
[1] = tested on: IL-17 / IFN-γ producing CD4+ T helper cells; assay: In vivo genomics challenge model: T helper subtypes and airway IL-17; design: species or system Holstein cattle
[2] = Lactone A / lactone B equilibration in aqueous solution; format: physicochemical; settings: pH>6 and temperatures >60° C.
Protocol: The H-11 lactones were separated by HPLC using an Agilent 1100 quaternary pump and diode array detector (250 nm) with an X-select CSH C18 column (150×4.6 mm, 2.5 μm) at 50° C. using a gradient mobile phase (mp) comprising 0.03% H2SO4 in water (mpA) and acetonitrile (mpB) over 16 minutes. Lactone A eluted at 5.8 minutes (area % 92.4) and lactone B eluted at 5.2 minutes (area % 7.6).
In an aqueous solution, Example H-11 exists as an equilibrated mixture of two lactone isomers as shown above. The ratio is approximately 9:1 lactone A:B. The rate of equilibration depends on pH and temperature, with neutral pH giving faster equilibration, pH˜5-6 giving much slower equilibration, and higher temperatures resulting in faster equilibration. Equilibration occurs in under 1-hour at pH>6 and temperatures >60° C. H-11 isomerization is a 6 exo-Trig cyclization and is a favored reaction by Baldwin's Rules. The dominant isomer, lactone-A, is a 15-membered macrocyclic lactone, while the minor isomer, lactone-B, is a 13-membered macrocyclic lactone. […]

[3] = tested on: IL-8; assay: IL-8 levels in cattle (natural infection and M. hemolytica challenge studies); format: in vivo; settings: over the course of a natural infection study; control animals increased 270%
Protocol: Intensive sample collection was conducted over a 96-hour period in a subset of cattle treated with Example H-91 (0.5 mg/kg) or H-11 (0.1 mg/kg) in the natural bovine infection studies. […] The compounds of the invention have shown an up-regulation of IL-36RA, which then binds to IL-36R limiting the pro-inflammatory response of IL-36. In addition, the IL-8 levels from one of the natural infection studies with Example H-91, increased 270% over the course of the study for control animals. In contrast, the IL-8 levels in animals dosed with Example H-91 decreased by about 15%.

[4] = in vivo; settings: Holstein, bovine, plasma, subcutaneous, 2.5 mg/kg
Protocol: (§3) The primary clinical endpoint for efficacy was treatment failure/success over a 14-day observation period. Clinically normal beef calves (150-200 kg) at moderate risk for BRD were dosed on arrival to the feedlot. Animals (N=114/group) received saline (T01), 5 mg/kg M9 (T02), 10 mg/kg M9 (T03) or Zactran (T04).

[5] = molecular target: LCN2 (Bos taurus, UniProt A0AAA9TIZ6); assay: Surface plasmon resonance (SPR) drug/target affinity; format: binding; settings: biologically relevant pH
Sequence of LCN2 (A0AAA9TIZ6 entry or part of it): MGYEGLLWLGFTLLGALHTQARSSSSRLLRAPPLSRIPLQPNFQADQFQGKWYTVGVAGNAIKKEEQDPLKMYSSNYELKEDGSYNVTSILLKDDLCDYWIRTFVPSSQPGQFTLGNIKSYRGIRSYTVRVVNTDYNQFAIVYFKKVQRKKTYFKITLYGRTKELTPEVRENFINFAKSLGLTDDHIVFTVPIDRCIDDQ
Excerpt: (§1) In order to add further clarity to binding partner identification, surface plasma resonance (SPR) technology was used. […] These targets were unique to this drug class compared to gamithromycin, a macrolide antibiotic used in the treatment of BRD. Both targets fit the paradigm that the immunological mechanism of action is linked to the pathways that are both of key importance as being dysregulated in BRD and modulated by M9. LCN2 is expressed by neutrophils upon activation of toll-like receptors (TLRs) and is a component of the innate inflammatory response. […] Very little information exists to date on SLAMF9. It is a member of a family of signal adaptor proteins that is thought to lack signal transduction capabilities.
(§2) KD is the equilibrium dissociation constant that was used to present the drug/target affinity. The identified targets associated with drug were measured by surface plasmon resonance (SPR) to define the KD.

[6] = molecular target: LPO (Bos taurus, UniProt P80025); assay: as above; format: binding
Excerpt: as §1, §2

[7] = molecular target: NLRX1; assay: as above; format: binding
Excerpt: as §1, §2

[8] = molecular target: SLAMF9 (Bos taurus, UniProt E1BNF9); assay: as above; format: binding; settings: biologically relevant pH
Sequence of SLAMF9 (E1BNF9 entry or part of it): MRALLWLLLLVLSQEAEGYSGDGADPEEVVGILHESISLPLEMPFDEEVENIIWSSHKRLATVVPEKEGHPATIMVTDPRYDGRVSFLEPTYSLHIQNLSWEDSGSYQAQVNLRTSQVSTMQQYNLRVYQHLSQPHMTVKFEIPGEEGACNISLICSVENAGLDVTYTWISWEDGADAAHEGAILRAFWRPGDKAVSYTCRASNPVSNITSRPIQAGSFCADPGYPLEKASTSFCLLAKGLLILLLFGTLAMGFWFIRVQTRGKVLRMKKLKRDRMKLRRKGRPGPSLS
Excerpt: as §1, §2

[9] = molecular target: TLR4; assay: as above; format: binding
Excerpt: as §1, §2

[10] = Plasma pharmacokinetics in cattle; settings: following a 10 mg/kg dose, separate PK study
Protocol: as §3

[11] = tested on: E. coli; assay: In-vitro MIC model (CLSI broth micro-dilution); settings: Escherichia coli, ATCC25922, read-out: Comparative MIC's, E. coli ATCC 25922

SMILES: CCCNC[C@]1(O)[C@H](C)O[C@@H](O[C@H]2[C@H](C)[C@@H](O[C@@H]3O[C@H](C)C[C@H](N(C)C(=O)N(C)c4ccccc4)[C@H]3O)[C@](C)(O)C[C@@H](C)CN[C@H](C)[C@@H](O)[C@](C)(O)[C@@H](CC)OC(=O)[C@@H]2C)C[C@@]1(C)OC [Example H-11, 1-((2S,3R,4S,6R)-2-(((2R,3S,4R,5R,8R,10R,11R,12S,13S,14R)-2-ethyl-3,4,10-trihydroxy-13-(((2R,4R,5S,6S)-5-hydroxy-4-methoxy-4,6-dimethyl-5-((propylamino)methyl)tetrahydro-2H-pyran-2-yl)oxy)-3,5,8,10,12,14-hexamethyl-15-oxo-1-oxa-6-azacyclopentadecan-11-yl)oxy)-3-hydroxy-6-methyltetrahydro-2H-pyran-4-yl)-1,3-dimethyl-3-phenylurea]
- Th1:Th17 ratio post-treatment ([1]; 0.1 mg/kg (T02), blood at 24 and 48 hours, FIG. 9): increase
- IL-17 levels in the airway (BAL fluid, consolidated lung tissue) ([1]; animals challenged with M. haemolytica, FIG. 10): reduction
- time to equilibration of the lactone isomers [2]: under 1 hour

SMILES: CCCNC[C@]1(O)[C@H](C)O[C@@H](O[C@H]2[C@H](C)[C@@H](O[C@@H]3O[C@H](C)C[C@H](N(C)C(=O)Nc4ccccc4)[C@H]3O)[C@](C)(O)C[C@@H](C)CN[C@H](C)[C@@H](O)[C@](C)(O)[C@@H](CC)OC(=O)[C@@H]2C)C[C@@]1(C)OC [Example H-91, 1-((2S,3R,4S,6R)-2-(((2R,3S,4R,5R,8R,10R,11R,12S,13S,14R)-2-ethyl-3,4,10-trihydroxy-13-(((2R,4R,5S,6S)-5-hydroxy-4-methoxy-4,6-dimethyl-5-((propylamino)methyl)tetrahydro-2H-pyran-2-yl)oxy)-3,5,8,10,12,14-hexamethyl-15-oxo-1-oxa-6-azacyclopentadecan-11-yl)oxy)-3-hydroxy-6-methyltetrahydro-2H-pyran-4-yl)-1-methyl-3-phenylurea]
- decrease of IL-8 levels [3]: about 15%
- Cmax [4]: 152 ng/mL

SMILES: CCCNC[C@]1(O)[C@H](C)O[C@@H](O[C@H]2[C@H](C)[C@@H](O[C@@H]3O[C@H](C)C[C@H](NC)[C@H]3O)[C@](C)(O)C[C@@H](C)CN[C@H](C)[C@@H](O)[C@](C)(O)[C@@H](CC)OC(=O)[C@@H]2C)C[C@@]1(C)OC [Example M9, (2R,3S,4R,5R,8R,10R,11R,12S,13S,14R)-2-ethyl-3,4,10-trihydroxy-13-(((2R,4R,5S,6S)-5-hydroxy-4-methoxy-4,6-dimethyl-5-((propylamino)methyl)-tetrahydro-2H-pyran-2-yl)oxy)-11-(((2S,3R,4S,6R)-3-hydroxy-6-methyl-4-(methylamino)tetrahydro-2H-pyran-2-yl)oxy)-3,5,8,10,12,14-hexamethyl-1-oxa-6-azacyclopentadecan-15-one, reference compound]
- drug/target binding, LCN2 [5]: direct binding targets
- Interaction type [6]: Indirect
- drug/target binding, NLRX1 [7]: Indirect
- drug/target binding, SLAMF9 [8]: direct binding targets
- Interaction KD (M) [9]: Indirect
- maximum plasma concentration [10]: 5 µg/mL
- MIC [11]: > 64 µg/mL
